Test results from patent publication US20250084371A1, “CELL MONOLAYER BLOCKING AGENTS AND USES THEREOF” (LUMICKS CA HOLDING B.V., priority 2021, published 2025).

Tests used:
Raji cells [1] = assay: Avidity of UNT or FMC63-CAR primary T cells to Raji covalent monolayer on PLL-coated chips; type: cell-based; conditions: 10 mM crosslinker, mean n=2
Method: Untransduced or FMC63-transduced primary CAR T cells were obtained from ProMab Biotechnologies Inc. (Anti-CD19-TF-CD28-CD3z (PMC-152)) propagated with […] CD3/CD28 dynabeads (Thermo Fisher Scientific) and 90 IU/mL of IL-2 (Miltenyi Biotec). Raji cells were used as target cells. Primary CAR-T cells were cultured in RPMI+Glutamax supplemented with 50 μM β-Mercaptoethanol, 5% heat inactivated human serum, and Penicillin-Streptomycin.
z-Movi® chips (obtained and as available from LUMICKS) were coated with Poly-L-Lysine (#P4707-50ML, Sigma) diluted 1:5 in PBS for 10 minutes at room temperature. The following day the target cells were seeded in PBS, incubated 0.75 h, and subsequently the monolayers were left untreated or reacted with BS(PEG)9. For negative control the PLL coated chips were reacted with 5 mM MS(PEG)4 before seeding the Raji cells. The effector cells were stained with CellTrace™ Far Red dye (Thermo Fisher […] Scientific) at 1 μM for 15 minutes in PBS at 37° C., then resuspended at 10 million/mL in complete medium and used for the avidity experiments. The stained effector cells (i.e. cells of interest) were introduced in the target cell-seeded flow cell, incubated for 5 minutes, and then a 1 to 1000 pN force ramp was applied throughout 2.5 minutes using z-Movi® operated with the Oceon® V1.2 software. […]

Raji cells [2] = assay: Monolayer integrity/viability (Trypan Blue) of Raji seeded PLL-coated chips after blocking; type: cell-based; conditions: Raji on PLL, vs DMSO vehicle
Method: (§1) z-Movi® chips (obtained and as available from LUMICKS (<https://lumicks.com/products/z-movi-cell-interaction-studies/>) were coated with Poly-L-Lysine (#P4707-50ML, Sigma) diluted 1:5 in PBS for 10 minutes at room temperature, or with human Fibronectin (#F0895, Sigma) at 0.1 mg/mL overnight at room temperature. The following day the target cells were seeded in serum free RPMI medium, incubated 1 h, and subsequently the medium replaced with complete RPMI medium. The chips were incubated for an additional hour before the blocking reaction. The effector cells were stained with CellTrace™ Far Red dye (Thermo Fisher Scientific) at 1 μM for 15 minutes in PBS at 37° C., then resuspended at 10 million/mL in complete medium and used for the avidity experiments. The stained effector cells (i.e. cells of interest) were introduced in the target cell-seeded flow cell, incubated for 5 minutes, and then a 1 to 1000 pN force ramp was applied throughout 2.5 minutes using z-Movi® operated with the Oceon V1.2 software. At the end of the avidity measurements, the monolayer was stained with a Trypan Blue solution to qualitatively assess the target cell viability. The avidity experiment analysis was performed using Oceon V1.2. […]

Hela-CD19 cells [3] = assay: Avidity of UNT or FMC63-CAR Jurkat to Hela-CD19 seeded fibronectin-coated chips after blocking; type: cell-based; conditions: Hela-CD19 on human fibronectin, blocker 5 mM; for percentage of effector cells bound to the target cells at the end of the force ramp (1000 pN): mean n=2
Method: (§2) z-Movi® chips (obtained and as available from LUMICKS (<https://lumicks.com/products/z-movi-cell-interaction-studies/>) were coated with Poly-L-Lysine (#P4707-50ML, Sigma) diluted 1:5 in PBS for 10 minutes at room temperature, or with human Fibronectin (#F0895, Sigma) at 0.1 mg/mL overnight at room temperature. The following day the target cells were seeded in serum free RPMI medium, incubated 1 h, and subsequently the medium replaced with complete RPMI medium. The chips were incubated for an additional hour before the blocking reaction. The effector cells were stained with CellTrace™ Far Red dye (Thermo Fisher Scientific) at 1 μM for 15 minutes in PBS at 37° C., then resuspended at 10 million/mL in complete medium and used for the avidity experiments. The stained effector cells (i.e. cells of interest) were introduced in the target cell-seeded flow cell, incubated for 5 minutes, and then a 1 to 1000 pN force ramp was applied throughout 2.5 minutes using z-Movi® operated with the Oceon V1.2 software. At the end of the avidity measurements, the monolayer was stained with a Trypan Blue solution to qualitatively assess the target cell viability. The avidity experiment analysis was performed using Oceon V1.2.
(§3) The MS(PEG)4 or BS(PEG)5 (Thermo Fisher Scientific) (see FIG. 2) were dissolved in anhydrous DMSO (Merck) then diluted in PBS to obtain a final concentration of 5 mM or as otherwise indicated. The target cell-seeded chips (or coated only with PLL or fibronectin) were rinsed with PBS before introducing the blocking solution (or a PBS solution with DMSO as control sample). The chips were incubated for 15 minutes at room temperature and the reaction was stopped with TBS (50 mM Tris pH7.4, 150 mM NaCl). The chips were subsequently equilibrated with complete medium and used for avidity measurements. Furthermore, blocking was also tested with incubations of 1 hour with serum free RPMI medium, 20% fetal bovine serum (FBS), 50% FBS, 50% human serum (HS), 10% bovine serum albumin (BSA), NALM6 condition medium. […]

Raji cells [4] = assay: Avidity of UNT or FMC63-CAR Jurkat cells to Raji seeded PLL-coated chips after blocking; type: cell-based; conditions: for percentage of effector cells bound to the target cells at the end of the force ramp (1000 pN) / difference in the positive/negative window: PLL; for percentage of effector cells bound to the target cells at the end of the force ramp (1000 pN): mean n=2; for difference in the positive/negative window: CAR minus UNT bound at 1000 pN, Raji; for binding of the CAR sample (cells bound) after blocking: FMC63 CAR Jurkat, from about 80% without blocking; for binding of the CAR sample (cells bound) after blocking / background binding of the UNT sample (cells bound) after blocking: Raji-seeded PLL chips; for background binding of the UNT sample (cells bound) after blocking: UNT Jurkat, from about 50% without blocking
Method: as §2
(§4) The MS(PEG)4 or BS(PEG)5 (Thermo Fisher Scientific) (see FIG. 2) were dissolved in anhydrous DMSO (Merck) then diluted in PBS to obtain a final concentration of 5 mM or as otherwise indicated. The target cell-seeded chips (or coated only with PLL or fibronectin) were rinsed with PBS before introducing the blocking solution (or a PBS solution with DMSO as control sample). The chips were incubated for 15 minutes at room temperature and the reaction was stopped with TBS (50 mM Tris pH7.4, 150 mM NaCl). The chips were subsequently equilibrated with complete medium and used for avidity measurements. Furthermore, blocking was also tested with incubations of 1 hour with serum free RPMI medium, 20% fetal bovine serum (FBS), 50% FBS, 50% human serum (HS), 10% bovine serum albumin (BSA), NALM6 condition medium.
We next validated the use of NHS-based blockers to reduce background binding of the effector cells in the presence of the monolayer. We used as cells of interest a Jurkat cell line transduced to express the FMC63 Chimeric Antigen Receptor (CAR) or untransduced (UNT) as control cells. As target cells we used the Raji cell line, endogenously expressing the CD19 antigen, seeded on PLL coated chips.

Hela-CD19 cells [5] = assay: Avidity of UNT or FMC63-CAR Jurkat to Hela-CD19 seeded PLL-coated chips after blocking; type: cell-based; conditions: Hela-CD19 on PLL, blocker 5 mM; for percentage of effector cells bound to the target cells at the end of the force ramp (1000 pN): mean n=2
Method: as §2, §3

CD69 activation marker = assay: CD69 activation assay, Jurkat co-incubated with blocked Raji cells; type: cell-based; conditions: 1:1, 4 h
Method: Target cells were treated with DMSO or blocking agent using the protocol above, resuspended at 1 million/mL in RPMI complete medium and mixed at 1:1 ratio with the indicated effector cells. For the IFNγ release assay the samples were incubated for 7 h in the incubator before spinning down and use of the supernatant to perform the ELISA (Biolegend, ELISA MAX™ Deluxe Set Human IFNγ). […]

Raji cells [6] = assay: Avidity of UNT or FMC63-CAR primary T cells to Raji seeded PLL-coated chips after blocking; type: cell-based
Method: Untransduced or FMC63-transduced primary CAR T cells were obtained from ProMab Biotechnologies Inc. (Anti-CD19-TF-CD28-CD3z (PMC-152)) propagated with CD3/CD28 dynabeads (Thermo Fisher Scientific) and 90 IU/mL of IL-2 (Miltenyi Biotec), or Untransduced or FMC63 CAR transduced Jurkat were used (Creative Biolabs).
as §2, §4
We then performed the experiments with the blocking agents with primary T cells expressing a FMC63 CAR (or not) layered on Raji cells. We observed that the observations made with Jurkat cells were recapitulated showing a considerable improvement of the negative/positive window on the chips subjected to the blocking reaction (FIG. 7).

IFNγ = IFNγ release assay (ELISA), primary T cells co-incubated with blocked Raji cells; type: cell-based, human; conditions: 1:1, 7 h
Method: Target cells were treated with DMSO or blocking agent using the protocol above, resuspended at 1 million/mL in RPMI complete medium and mixed at 1:1 ratio with the indicated effector cells. For the IFNγ release assay the samples were incubated for 7 h in the incubator before spinning down and use of the supernatant to perform the ELISA (Biolegend, ELISA MAX™ Deluxe Set Human IFNγ). For the CD69 assay, the target and effector cells prepared as described above were co-incubated for 5 h in the incubator before being stained using anti-CD3 and anti-CD69 antibodies (clone SK7 and FN50, Biolegend).

PLL-coated chips = assay: Binding of Jurkat cells to PLL-coated chips after blocking (z-Movi avidity, no target cells); type: cell-based
Method: as §1

[7] = tested on: human fibronectin-coated chips; assay: Binding of Jurkat cells to human fibronectin-coated chips after blocking (z-Movi avidity, no target cells); type: cell-based
Method: as §1

[8] = CAR Jurkat + Raji treated with 5 mM blocker 15 minutes
[9] = UNT Jurkat + Raji treated with 5 mM blocker 15 minutes

Compound: O=C(CCOCCOCCOCCOCCOCCOCCOCCOCCOCCC(=O)ON1C(=O)CCC1=O)ON1C(=O)CCC1=O [BS(PEG)9]
- percentage of effector cells bound to the target cells at the end of the force ramp (1000 pN) (Raji cells [1]; CAR primary T cells + Raji): 61.4%
- percentage of effector cells bound to the target cells at the end of the force ramp (1000 pN) (Raji cells [1]; UNT primary T cells + Raji): 10.3%

Compound: COCCOCCOCCOCCC(=O)ON1C(=O)CCC1=O [MS(PEG)4]
- monolayer integrity (confluency, cell morphology, staining) (Raji cells [2]; blocker 5 mM): No differences in target cell monolayer confluency, cell morphology or staining could be detected
- percentage of effector cells bound to the target cells at the end of the force ramp (1000 pN) (Hela-CD19 cells [3]; CAR Jurkat): 70.1%
- pos/neg window after the blocking reaction (Hela-CD19 cells [3]; control window 33.3%): 53.3%
- percentage of effector cells bound to the target cells at the end of the force ramp (1000 pN) (Hela-CD19 cells [3]; UNT Jurkat): 16.8%
- percentage of effector cells bound to the target cells at the end of the force ramp (1000 pN) (Raji cells [4]; CAR (FMC63-transduced) effector cells + Raji, blocker 5 mM): 84.7%
- difference in the positive/negative window (Raji cells [4]; blocker 5 mM): 51.9%
- binding of the CAR sample (cells bound) after blocking (Raji cells [4]): about 70%
- percentage of effector cells bound to the target cells at the end of the force ramp (1000 pN) (Raji cells [4]; UNT (untransduced) effector cells + Raji, blocker 5 mM): 32.8%
- background binding of the UNT sample (cells bound) after blocking (Raji cells [4]): about 20%
- percentage of effector cells bound to the target cells at the end of the force ramp (1000 pN) (Hela-CD19 cells [5]; CAR Jurkat): 68%
- pos/neg window after the blocking reaction (Hela-CD19 cells [5]; control window 49.4%): 63%
- percentage of effector cells bound to the target cells at the end of the force ramp (1000 pN) (Hela-CD19 cells [5]; UNT Jurkat): 5%
- percentage of CD69 positive cells (CD69 activation marker; [8]): 27%
- percentage of CD69 positive cells (CD69 activation marker; [9]): 0.8%
- percentage of effector cells bound to the target cells at the end of the force ramp (1000 pN) (Raji cells [6]; CAR primary T cells + Raji, mean n=3 (FIG. 7B)): 67.8%
- percentage of effector cells bound to the target cells at the end of the force ramp (1000 pN) (Raji cells [6]; UNT primary T cells + Raji, mean n=3 (FIG. 7B)): 42.6%

Compound: O=C(CCOCCOCCOCCOCCOCCC(=O)ON1C(=O)CCC1=O)ON1C(=O)CCC1=O [BS(PEG)5]
- monolayer integrity (confluency, cell morphology, staining) (Raji cells [2]; blocker 4.5 mM): No differences in target cell monolayer confluency, cell morphology or staining could be detected
- amount of IFNγ in co-culture supernatants (IFNγ; CAR primary T cells + Raji treated with 4.5 mM blocker 15 minutes): 1633 pg/mL
- amount of IFNγ in co-culture supernatants (IFNγ; UNT primary T cells + Raji treated with 4.5 mM blocker 15 minutes): 11 pg/mL
- percentage of effector cells bound to the target cells at the end of the force ramp (1000 pN) (Raji cells [4]; CAR (FMC63-transduced) effector cells + Raji, blocker 4.5 mM): 78.3%
- difference in the positive/negative window (Raji cells [4]; blocker 4.5 mM): 62.7%
- binding of the CAR sample (cells bound) after blocking (Raji cells [4]): about 70%
- percentage of effector cells bound to the target cells at the end of the force ramp (1000 pN) (Raji cells [4]; UNT (untransduced) effector cells + Raji, blocker 4.5 mM): 15.6%
- background binding of the UNT sample (cells bound) after blocking (Raji cells [4]): about 20%
- percentage of CD69 positive cells (CD69 activation marker; [8]): 30%
- percentage of CD69 positive cells (CD69 activation marker; [9]): 0.6%
- percentage of effector cells bound to the target cells at the end of the force ramp (1000 pN) (Raji cells [6]; CAR primary T cells + Raji, blocker 4.5 mM, mean n=2 (FIG. 7A)): 66.3%
- percentage of effector cells bound to the target cells at the end of the force ramp (1000 pN) (Raji cells [6]; UNT primary T cells + Raji, blocker 4.5 mM, mean n=2 (FIG. 7A)): 39.9%
- percentage of Jurkat cells bound at the end (1000 pN) of the avidity measurement (PLL-coated chips; blocking agent 1 mM): 92.9%
- percentage of Jurkat cells bound at the end (1000 pN) of the avidity measurement (PLL-coated chips; blocking agent 5 mM): 1.2%
- percentage of bound Jurkat cells at the end of the force ramp (1000 pN) ([7]; blocking agent 1 mM): 52.8%
- percentage of bound Jurkat cells at the end of the force ramp (1000 pN) ([7]; blocking agent 5 mM): 43.2%
